Earlier results, collected in patent USRE48948E1, “Clonidine compounds in a biodegradable polymer” (priority 2008, dated 2022).
Counter-ions that a name gives are not always drawn.

Assays:
post-surgical knee pain = conditions: Intra-articular administration of 150 mcg
[1] = in vivo

Row | Structure (SMILES) | relief of post-surgical knee pain (post-surgical knee pain) | plasma concentration above which antihypertensive effects become evident [1] | systemic concentration associated with spinal analgesia [1]
1 | Clc1cccc(Cl)c1N=C1NCCN1 [clonidine HCL] | as effective as morphine |  | 
2 | Clc1cccc(Cl)c1N=C1NCCN1 [clonidine, 2,6-dichloro-N-2-imidazolidinyldenebenzenamine] |  | above 500 pg/mL | approximately 2 ng/mL
